Source: US20100113607A1, “Pharmaceutical Compositions” (priority 2000, published 2010)

Test system: onychomycosis
Experiment: Topical treatment of a laser-perforated nail of a patient suffering from onychomycosis
Type: in vivo, human
Settings: composition containing 10% terbinafine by total weight, administered to laser-perforated nail, once daily for 12 weeks
Protocol: A composition containing 10% terbinafine based on the total weight of the composition is prepared and administered to a laser-perforated nail of a patient suffering from onychomycosis once daily for 12 weeks.

CN(C/C=C/C#CC(C)(C)C)Cc1cccc2ccccc12 [terbinafine]
clinical effectiveness: progress of clinical effectiveness is seen with growth of the healthy nail
